19 compounds from PubChem BioAssay AID248 (DTP/NCI, 2004) can be followed below.

Inconclusive results and toxic doses are left out.

The test has as its system L1210 leukemia ip in BDF1 mice, survival T/C. Nature of the test: NCI In Vivo Anticancer Drug Screen. Data for tumor model L1210 Leukemia (intraperitoneal) in B6D2F1 (BDF1) mice. As to conditions: endpoint: mean survival time, higher = longer survival. The method, boiled down:
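Tumor cells were implanted, animals were treated, and survival was followed. The result divides the treated measurement by the vehicle-control measurement.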

Setting [1] is: dose: 100.0 mg/kg/injection, schedule: Q04DX003 (ip), vehicle: saline with Tween-80.
The mark [2] stands for this setting: dose: 200.0 mg/kg/injection, schedule: Q04DX003 (ip), vehicle: saline with Tween-80.
Where [3] appears, read: dose: 400.0 mg/kg/injection, schedule: Q04DX003 (ip), vehicle: saline with Tween-80.
Where [4] appears, read: dose: 100.0 mg/kg/injection, schedule: Q04DX003 (ip), vehicle: saline.
Where [5] appears, read: dose: 200.0 mg/kg/injection, schedule: Q04DX003 (ip), vehicle: saline.
Where [6] appears, read: dose: 400.0 mg/kg/injection, schedule: Q04DX003 (ip), vehicle: saline.
The mark [7] stands for this setting: dose: 100.0 mg/kg/injection, schedule: Q04DX003 (ip), vehicle: Klucel (hydroxypropylcellulose) (HPC).
Where [8] appears, read: dose: 200.0 mg/kg/injection, schedule: Q04DX003 (ip), vehicle: Klucel (hydroxypropylcellulose) (HPC).
[9] abbreviates: dose: 400.0 mg/kg/injection, schedule: Q04DX003 (ip), vehicle: Klucel (hydroxypropylcellulose) (HPC).
[10] abbreviates: dose: 100.0 mg/kg/injection, schedule: Q04DX002 (ip), vehicle: Klucel (hydroxypropylcellulose) (HPC).
[11] abbreviates: dose: 200.0 mg/kg/injection, schedule: Q04DX002 (ip), vehicle: Klucel (hydroxypropylcellulose) (HPC).
Where [12] appears, read: dose: 400.0 mg/kg/injection, schedule: Q04DX002 (ip), vehicle: Klucel (hydroxypropylcellulose) (HPC).
[13] abbreviates: dose: 100.0 mg/kg/injection, schedule: Q01DX009 (ip), vehicle: saline with Tween-80.
Setting [14] is: dose: 200.0 mg/kg/injection, schedule: Q01DX009 (ip), vehicle: saline with Tween-80.

On to `O=C(O)C1(C(=O)O)CC2CC=CCC2C1` (stereo not given), for which the T/C is, setting by setting: (dose: 100.0 mg/kg/injection, schedule: Q01DX001 (ip), vehicle: acetone) 97 % of control; (dose: 100.0 mg/kg/injection, schedule: Q04DX003 (ip), vehicle: acetone) 100 % of control; (dose: 200.0 mg/kg/injection, schedule: Q01DX001 (ip), vehicle: acetone) 101 % of control; (dose: 200.0 mg/kg/injection, schedule: Q04DX003 (ip), vehicle: acetone) 104 % of control; (dose: 400.0 mg/kg/injection, schedule: Q01DX001 (ip), vehicle: acetone) 95 % of control; (dose: 400.0 mg/kg/injection, schedule: Q04DX003 (ip), vehicle: acetone) 98 % of control.
On to `Cc1[nH]ncc1Br`, for which the T/C under setting [1] is 98 % of control, the T/C under setting [2] is 92 % of control and the T/C under setting [3] was 103 % of control.
For `CCCCOP(=O)(NNC=O)OCCCC`, the T/C is 96 % of control under setting [4], 98 % of control under setting [5] and 95 % of control under setting [6].
In the case of `Cc1ccc(Cl)cc1N=C=S`, the T/C (dose: 75.0 mg/kg/injection, schedule: Q01DX001 (ip), vehicle: saline) is 100 % of control; the T/C (dose: 150.0 mg/kg/injection, schedule: Q01DX001 (ip), vehicle: saline) is 101 % of control; the T/C (dose: 300.0 mg/kg/injection, schedule: Q01DX001 (ip), vehicle: saline) was 106 % of control.
Turning to `N/C(=N\O)c1cccc(/C(N)=N/O)c1`, for the setting “dose: 100.0 mg/kg/injection, schedule: Q01DX001 (ip), vehicle: saline”, the T/C is 103 % of control.
For the compound `O=C(COc1ccc(Cl)cc1Cl)Nc1cc(Cl)ccc1Cl`, the T/C by setting is: (dose: 100.0 mg/kg/injection, schedule: Q04DX002 (ip), vehicle: gum acacia) 95 % of control; (dose: 200.0 mg/kg/injection, schedule: Q04DX002 (ip), vehicle: gum acacia) 95 % of control; (dose: 400.0 mg/kg/injection, schedule: Q04DX002 (ip), vehicle: gum acacia) 100 % of control.
Take `O=S(=O)(O)c1ccccc1.O=S(=O)(O)c1ccccc1.[NH-]C1CCCCC1[NH-].[Pt+2]`: the T/C by setting is: (dose: 0.5 mg/kg/injection, schedule: Q04DX003 (ip), vehicle: dextrose) 112 % of control; (dose: 2.0 mg/kg/injection, schedule: Q04DX003 (ip), vehicle: dextrose) 154 % of control; (dose: 4.0 mg/kg/injection, schedule: Q04DX003 (ip), vehicle: dextrose) 173 % of control; (dose: 6.0 mg/kg/injection, schedule: Q04DX003 (ip), vehicle: dextrose) 182 % of control.
With `COC1OC1(C)C` (stereo not given), the T/C is, setting by setting: (dose: 100.0 mg/kg/injection, schedule: Q01DX009 (ip), vehicle: saline) 102 % of control; under setting [4], 104 % of control; (dose: 200.0 mg/kg/injection, schedule: Q01DX009 (ip), vehicle: saline) 103 % of control; under setting [5], 102 % of control; (dose: 400.0 mg/kg/injection, schedule: Q01DX009 (ip), vehicle: saline) 100 % of control; under setting [6], 98 % of control.
Regarding `O=c1oc2c([N+](=O)[O-])cc([N+](=O)[O-])cc2c2ccccc12`, the T/C by setting is: (dose: 50.0 mg/kg/injection, schedule: Q01DX001 (ip), vehicle: carboxymethylcellulose (CMC)) 105 % of control; (dose: 100.0 mg/kg/injection, schedule: Q01DX001 (ip), vehicle: carboxymethylcellulose (CMC)) 94 % of control; (dose: 200.0 mg/kg/injection, schedule: Q01DX001 (ip), vehicle: carboxymethylcellulose (CMC)) 100 % of control; (dose: 400.0 mg/kg/injection, schedule: Q01DX001 (ip), vehicle: carboxymethylcellulose (CMC)) 92 % of control.
Turning to `CCCCCCc1c(C(OC)OC)[nH]c(=S)[nH]c1=O`, the T/C by setting is: (dose: 100.0 mg/kg/injection, schedule: Q01DX009 (ip), vehicle: Klucel (hydroxypropylcellulose) (HPC)) 91 % of control; under setting [7], 96 % of control; (dose: 200.0 mg/kg/injection, schedule: Q01DX009 (ip), vehicle: Klucel (hydroxypropylcellulose) (HPC)) 87 % of control; under setting [8], 98 % of control; (dose: 400.0 mg/kg/injection, schedule: Q01DX009 (ip), vehicle: Klucel (hydroxypropylcellulose) (HPC)) 87 % of control; under setting [9], 96 % of control.
As to `O=C1C=C(c2ccccc2)C(=O)C2(c3ccccc3)C=CCC(c3ccccc3)C12` (stereo not given), the T/C runs as follows: under setting [10], 113 % of control; under setting [11], 113 % of control; under setting [12], 95 % of control.
On to `O=C(NCCCCCCCCCCNC(=O)Nc1cccc(C2=NCCN2)c1)Nc1cccc(C2=NCCN2)c1`, for which the T/C was 106 % of control (dose: 10.0 mg/kg/injection, schedule: Q01DX Z (ip), vehicle: water) and 90 % of control (dose: 20.0 mg/kg/injection, schedule: Q01DX Z (ip), vehicle: water).
As to `N/C(=N\[N+](=O)[O-])N(Cc1ccccc1)/N=C/c1ccccc1`, the T/C runs as follows: (dose: 87.5 mg/kg/injection, schedule: Q04DX003 (ip), vehicle: Klucel (hydroxypropylcellulose) (HPC)) 92 % of control; (dose: 175.0 mg/kg/injection, schedule: Q04DX003 (ip), vehicle: Klucel (hydroxypropylcellulose) (HPC)) 92 % of control; (dose: 350.0 mg/kg/injection, schedule: Q04DX003 (ip), vehicle: Klucel (hydroxypropylcellulose) (HPC)) 88 % of control.
For the compound `CCC(C(N)=O)C1=CCCCC1` (stereo not given), the T/C reads like this: under setting [13], 95 % of control; under setting [14], 93 % of control; (dose: 400.0 mg/kg/injection, schedule: Q01DX009 (ip), vehicle: saline with Tween-80) 98 % of control.
For the compound `CCCCC(CC)C1NCCO1` (stereo not given), the T/C was 87 % of control (dose: 50.0 mg/kg/injection, schedule: Q01DX009 (ip), vehicle: saline with Tween-80); 100 % of control under setting [13]; 105 % of control under setting [1]; 93 % of control under setting [14]; 86 % of control under setting [2].
On to `CCOC(=O)c1cc2ccccc2[nH]1`, for which the T/C is 93 % of control (dose: 50.0 mg/kg/injection, schedule: Q01DX001 (ip), vehicle: Klucel (hydroxypropylcellulose) (HPC)); 98 % of control (dose: 100.0 mg/kg/injection, schedule: Q01DX001 (ip), vehicle: Klucel (hydroxypropylcellulose) (HPC)); 97 % of control (dose: 100.0 mg/kg/injection, schedule: Q04DX002 (ip), vehicle: saline with Tween-80); 93 % of control (dose: 200.0 mg/kg/injection, schedule: Q01DX001 (ip), vehicle: Klucel (hydroxypropylcellulose) (HPC)); 87 % of control (dose: 200.0 mg/kg/injection, schedule: Q04DX002 (ip), vehicle: saline with Tween-80); 97 % of control (dose: 400.0 mg/kg/injection, schedule: Q04DX002 (ip), vehicle: saline with Tween-80).
With `CN(C)c1ccc(CN2CCCN(Cc3ccc(N(C)C)cc3)C2c2ccc(N(CCCl)CCCl)cc2)cc1`, the T/C was 102 % of control under setting [7], 104 % of control under setting [8] and 100 % of control under setting [9].
For the compound `CSCCC(NC(=O)CNC(=O)OCc1ccccc1)C(=O)O` (stereo not given), the T/C by setting is: under setting [1], 106 % of control; under setting [2], 95 % of control; under setting [3], 107 % of control.
`N#Cc1nc2c(n(O)c1=N)CCC/C2=C\c1ccc(Cl)c(Cl)c1`: the T/C is 99 % of control under setting [10], 89 % of control under setting [11] and 92 % of control under setting [12].
